In test [1] the target is CDK12/CycK (Homo sapiens, UniProt Q9NYV4). The test is described as follows: CDK12/CycK high ATP kinase assay (TR-FRET, 2 mM ATP). The class given is biochemical. To be noted: 2 mM ATP (high ATP); median; read-out: CDK12/CyclinK, 2 mM ATP (high ATP), IC50-[mol/l] (median). A digest of the protocol: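 Read-out is TR-FRET (Eu-anti-rabbit IgG, anti-phospho-c-Myc Ser62 antibody, streptavidin-XL665) after EDTA stop. Reaction ran 60 min at 22 °C using 1 µM biotin-peptide and high ATP (2 mM) with roughly 0.75 nM recombinant CDK12/CycK, after 15 min compound pre-binding; normalised emission ratios yield IC50.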
Sequence of CDK12/CycK (Q9NYV4 with tags, fused parts or gaps): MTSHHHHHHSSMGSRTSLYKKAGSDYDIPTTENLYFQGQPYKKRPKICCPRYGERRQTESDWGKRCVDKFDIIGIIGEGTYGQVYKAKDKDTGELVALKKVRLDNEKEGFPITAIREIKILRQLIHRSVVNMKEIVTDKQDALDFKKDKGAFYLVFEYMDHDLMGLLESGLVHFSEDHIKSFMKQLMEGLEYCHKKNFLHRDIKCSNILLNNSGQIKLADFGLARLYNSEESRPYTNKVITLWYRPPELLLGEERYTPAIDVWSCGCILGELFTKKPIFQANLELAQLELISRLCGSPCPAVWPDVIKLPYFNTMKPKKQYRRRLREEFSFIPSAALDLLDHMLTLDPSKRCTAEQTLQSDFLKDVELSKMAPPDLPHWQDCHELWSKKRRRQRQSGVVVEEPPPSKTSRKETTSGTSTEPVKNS
Sequence of CDK12/CycK (O75909 1-300 partner limits assumed): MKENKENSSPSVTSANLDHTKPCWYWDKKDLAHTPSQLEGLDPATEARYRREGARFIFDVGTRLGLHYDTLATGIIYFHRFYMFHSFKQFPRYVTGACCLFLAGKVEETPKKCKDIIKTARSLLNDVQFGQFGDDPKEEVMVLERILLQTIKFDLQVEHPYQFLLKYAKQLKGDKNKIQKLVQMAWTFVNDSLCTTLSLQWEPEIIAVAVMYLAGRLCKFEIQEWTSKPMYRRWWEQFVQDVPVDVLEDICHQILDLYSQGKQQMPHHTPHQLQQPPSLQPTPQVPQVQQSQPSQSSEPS
In general terms: In TR-FRET formats the signal depends on donor and acceptor labels being close together.

For test [2], the system named is BRCA1 mRNA expression in MDA-MB-231 cells. The test is described as follows: qRT-PCR assay: BRCA1 mRNA expression in MDA-MB-231. The class given is cell-based, human. To be noted: Homo sapiens, MDA-MB-231, Inhibition of BRCA1 mRNA expression in MDA-MB-231 cells; median; read-out: RTqPCR-MDA-MB-231, IC50, BRCA1 (median). A digest of the protocol: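 BRCA1 transcript by RT-qPCR relative to GAPDH, from 600 ng RNA converted to cDNA. MDA-MB-231 cells plated at 200,000/well received test compound continuously for 24 h, starting 24 h post-seeding.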
For orientation: Real-time PCR tracks product formation cycle by cycle.

The subject of test [3] is MDA-MB-231, human breast cancer cells. Briefly: Proliferation assay MDA-MB-231 (crystal violet, 4 days). The class given is cell-based. The settings on record: Homo sapiens, MDA-MB-231, 96 h, MDA-MB-231 cells, median, read-out: Prolif-MDA MB-231, IC50-[mol/l] (median). A digest of the protocol: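 IC50 from a 4-parameter fit of crystal violet absorbance (595 nm), scaled between the day-of-dosing plate (0%) and vehicle cells (100%). MDA-MB-231 or CAL-120 cells were treated for 4 days with 0.01–10 micromol/L compound in 0.1% DMSO after 24 h attachment.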

The results in this text go back to patent publication US20230117034A1, “PYRAZOLOTRIAZINES” (Bayer Aktiengesellschaft, priority 2019, published 2023).

pIC50: −log10 of the molar value.

For `Fc1ccc2[nH]c(CNc3nc(N4CCOCC4)nc4c([C@@H]5CC5(F)F)cnn34)nc2c1` (single isomer, unassigned) [Example 315, 8-[(1R or S)-2,2-difluorocyclopropyl]-N-[(5-fluoro-1H-benzimidazol-2-yl)methyl]-2-(morpholin-4-yl)pyrazolo[1,5-a][1,3,5]triazin-4-amine], the pIC50 in test [1] was under 4.71; in test [2], 7.12; in test [3] it was 7.06.

For `Brc1cnn2c(NCc3nc4c([nH]3)CCCC4)nc(N3CCOCC3)nc12` [Example 21, 8-bromo-2-(morpholin-4-yl)-N-[(4,5,6,7-tetrahydro-1H-benzimidazol-2-yl)methyl]pyrazolo[1,5-a][1,3,5]triazin-4-amine], the figures for the pIC50 in test [1], in test [2] and in test [3] were 5.02, 7.50 and 6.55, respectively.

Turning to `COc1cccc2[nH]c(CNc3nc(N4CCOCC4)nc4c(CC(F)(F)F)cnn34)nc12` [Example 277, N-[(4-methoxy-1H-benzimidazol-2-yl)methyl]-2-(morpholin-4-yl)-8-(2,2,2-trifluoroethyl)pyrazolo[1,5-a][1,3,5]triazin-4-amine], the pIC50 in test [1] is 5.32; in test [2], 8.27; in test [3], 7.40.

Take `CN1CCN(c2nc(NCc3nc4cc(F)c(F)cc4[nH]3)n3ncc(C4CC4)c3n2)CC1` [Example 311, 8-cyclopropyl-N-[(5,6-difluoro-1H-benzimidazol-2-yl)methyl]-2-(4-methylpiperazin-1-yl)pyrazolo[1,5-a][1,3,5]triazin-4-amine]: the figures for the pIC50 in test [1], in test [2] and in test [3] were under 4.70, 8.47 and 7.78, respectively.

On to `CN1CCN(c2nc(NCc3nc4c(F)cccc4[nH]3)n3ncc(C(F)(F)F)c3n2)CC1` [Example 293, N-[(4-fluoro-1H-benzimidazol-2-yl)methyl]-2-(4-methylpiperazin-1-yl)-8-(trifluoromethyl)pyrazolo[1,5-a][1,3,5]triazin-4-amine], for which the pIC50 in test [1] is 5.23; in test [2] it was 8.25; in test [3], 7.44.

For `NC12CC1CN(c1nc(NCc3nc4ccccc4[nH]3)n3ncc(Br)c3n1)C2` (stereo not drawn) [Example 258, 2-(1-amino-3-azabicyclo[3.1.0]hexan-3-yl)-N-(1H-benzimidazol-2-ylmethyl)-8-bromo-pyrazolo[1,5-a][1,3,5]triazin-4-amine], the pIC50 in test [1] is 5.33; in test [2] it was 7.92; in test [3], 7.26.

Take `CN(CC1CC1)c1nc(NCc2nc3ccccc3[nH]2)n2ncc(Br)c2n1` [Example 287, N^4-[(1H-benzimidazol-2-yl)methyl]-8-bromo-N^2-(cyclopropylmethyl)-N^2-methylpyrazolo[1,5-a][1,3,5]triazine-2,4-diamine]: the pIC50 is 4.97 in test [1], 7.68 in test [2] and 7.46 in test [3].

Consider `FC(F)(F)Cc1cnn2c(NCc3nc4cc(Cl)c(Cl)cc4[nH]3)nc(N3CCOCC3)nc12` [Example 302, N-[(5,6-dichloro-1H-benzimidazol-2-yl)methyl]-2-(morpholin-4-yl)-8-(2,2,2-trifluoroethyl)pyrazolo[1,5-a][1,3,5]triazin-4-amine], for which the pIC50 was 5.22 in test [1], 8.04 in test [2] and 7.92 in test [3].

With `N[C@H]1CN(c2nc(NCc3nc4ccccc4[nH]3)n3ncc(Br)c3n2)CC12CC2` [Example 259, 2-[(7R)-7-amino-5-azaspiro[2.4]heptan-5-yl]-N-[(1H-benzimidazol-2-yl)methyl]-8-bromopyrazolo[1,5-a][1,3,5]triazin-4-amine], the pIC50 was 5.59 in test [1], 7.94 in test [2] and 7.50 in test [3].

Turning to `CN(CC(C)(C)O)c1nc(NCc2nc3c(F)c(F)ccc3[nH]2)n2ncc(C3CC3)c2n1` [Example 292, 1-[(8-cyclopropyl-4-{[(4,5-difluoro-1H-benzimidazol-2-yl)methyl]amino}pyrazolo[1,5-a][1,3,5]triazin-2-yl)(methyl)amino]-2-methylpropan-2-ol], the pIC50 in test [1] was 6.18; in test [2] it was 8.55; in test [3], 8.15.
